In patent US5652124A (priority 1989, dated 1997):
Read-outs that look alike come from different tables or passages of the source.

Key:
[1] = tested on: dd mice; experiment: Acute toxicity test; format: in vivo; details: oral, 7 week-old dd mice
Source text: As the result, no mouse died when administered with up to […] of the specimen, and higher dose was difficult.

[2] = tested on: α-glucosidase (EC 3.2.1.20) derived from pig liver; experiment: Stability against hydrolysis by α-glucosidase; format: in vitro ADME
Source text: Acid hydrolysis of the α-glucosyl hesperidin led to the formation of 1 mole of rhamnose and 2 moles of D-glucose per 1 mole hesperidin, while an α-glucosidase, obtained by the extraction from pig liver and partial purification, hydrolyzed α-glucosyl hesperidin into hesperidin and D-glucose.

[3] = Improvement of water-solubility: standing of saccharide-transfer reaction solution at 4° C.; format: physicochemical; details: 4° C. for 2 days
[4] = cited from earlier work

COc1ccc(C2CC(=O)c3c(O)cc(O[C@@H]4O[C@H](CO[C@@H]5O[C@@H](C)[C@H](O)[C@@H](O)[C@H]5O)[C@@H](O[C@H]5O[C@H](CO)[C@@H](O)[C@H](O)[C@H]5O)[C@H](O)[C@H]4O)cc3O2)cc1O (stereo partly drawn) [α-glycosyl hesperidin specimen [II]]
toxicity (conclusion in words) [1]: extremely low

α-glycosyl hesperidin
hydrolysis by α-glucosidase into hesperidin and D-glucose [2]: hydrolyzable

COc1ccc([C@@H]2CC(=O)c3c(O)cc(O[C@@H]4O[C@H](CO[C@@H]5O[C@@H](C)[C@H](O)[C@@H](O)[C@H]5O)[C@@H](O)[C@H](O)[C@H]4O)cc3O2)cc1O [hesperidin]
appearance of solution after standing [3]: white turbidity
solubility in water ([4]; ambient temperature): about 0.002 w/v %
solubility in water (weight per volume of water) ([4]; ambient temperature): about 1 g in 50 liters of water
solubility in water (in words) [4]: hardly soluble

COc1ccc(C2CC(=O)c3c(O)cc(O[C@@H]4O[C@H](CO[C@@H]5O[C@@H](C)[C@H](O)[C@@H](O)[C@H]5O)[C@@H](O[C@H]5O[C@H](CO)[C@@H](O)[C@H](O)[C@H]5O)[C@H](O)[C@H]4O)cc3O2)cc1O (stereo partly drawn) [α-glucosyl hesperidin]
hydrolysis by α-glucosidase into hesperidin and D-glucose ([2]; α-glucosidase from pig liver): hydrolyzed
